# In ChEMBL document CHEMBL5375988, “AcGlcAs: A Novel P53-Targeting Arsenical with Potent Cellular Uptake and Cancer Cell Selectivity” (J Med Chem, 2023):
# The source made the active and inactive calls. The rule behind the calls is not given here. Peptide text beside a SMILES is read from it. * marks the point of attachment. Cbz = O=C(OCc1ccccc1)*; CH2F = FC*
# Assays:
# [1] = tested on: Cellular tumor antigen p53 (Homo sapiens), P04637 [V272M]; assay: Restoration of p53-V272M mutant transcriptional activity on CDKN1A promoter in human NCI-H1299 cells at 22 uM measured after 24 hrs by firefly/renilla based luciferase reporter assay; assay type: cell-based; settings: filed as activator
# [2] = tested on: Cellular tumor antigen p53 (Homo sapiens), P04637 [V272M]; assay: Restoration of p53-V272M mutant transcriptional activity on PUMA promoter in human NCI-H1299 cells at 22 uM measured after 24 hrs by firefly/renilla based luciferase reporter assay; assay type: cell-based; settings: filed as activator
# NB-4 [3] = assay: Antiproliferative activity against human NB4 cells expressing PML/RARalpha assessed as cell growth inhibition measured after 48 hrs by CCK-8 assay; assay type: functional, cell-based
# [4] = target: T1, PML-RARalpha (Homo sapiens) (UniProt P10276+P29590); assay: Induction of Flag-tagged PML/RARalpha (unknown origin) degradation overexpressed in HEK293T cells at 7.2 to 36 uM incubated for 16 hrs by Western blot analysis; assay type: cell-based; settings: dose 7.2-36 µM
# T1 sequence (P10276 whole entry, looked up): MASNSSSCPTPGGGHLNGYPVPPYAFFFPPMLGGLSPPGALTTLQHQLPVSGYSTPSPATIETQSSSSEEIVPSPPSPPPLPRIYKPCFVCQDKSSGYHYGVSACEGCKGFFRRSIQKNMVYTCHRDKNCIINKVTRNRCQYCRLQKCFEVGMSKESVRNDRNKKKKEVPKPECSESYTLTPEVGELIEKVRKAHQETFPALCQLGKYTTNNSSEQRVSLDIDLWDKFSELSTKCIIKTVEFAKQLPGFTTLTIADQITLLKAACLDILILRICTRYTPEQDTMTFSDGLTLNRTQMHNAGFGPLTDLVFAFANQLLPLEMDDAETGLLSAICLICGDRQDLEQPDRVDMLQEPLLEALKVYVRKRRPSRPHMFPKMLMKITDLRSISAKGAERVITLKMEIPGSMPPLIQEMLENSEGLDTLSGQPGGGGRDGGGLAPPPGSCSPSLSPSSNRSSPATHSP
# T1 sequence (P29590 whole entry, looked up): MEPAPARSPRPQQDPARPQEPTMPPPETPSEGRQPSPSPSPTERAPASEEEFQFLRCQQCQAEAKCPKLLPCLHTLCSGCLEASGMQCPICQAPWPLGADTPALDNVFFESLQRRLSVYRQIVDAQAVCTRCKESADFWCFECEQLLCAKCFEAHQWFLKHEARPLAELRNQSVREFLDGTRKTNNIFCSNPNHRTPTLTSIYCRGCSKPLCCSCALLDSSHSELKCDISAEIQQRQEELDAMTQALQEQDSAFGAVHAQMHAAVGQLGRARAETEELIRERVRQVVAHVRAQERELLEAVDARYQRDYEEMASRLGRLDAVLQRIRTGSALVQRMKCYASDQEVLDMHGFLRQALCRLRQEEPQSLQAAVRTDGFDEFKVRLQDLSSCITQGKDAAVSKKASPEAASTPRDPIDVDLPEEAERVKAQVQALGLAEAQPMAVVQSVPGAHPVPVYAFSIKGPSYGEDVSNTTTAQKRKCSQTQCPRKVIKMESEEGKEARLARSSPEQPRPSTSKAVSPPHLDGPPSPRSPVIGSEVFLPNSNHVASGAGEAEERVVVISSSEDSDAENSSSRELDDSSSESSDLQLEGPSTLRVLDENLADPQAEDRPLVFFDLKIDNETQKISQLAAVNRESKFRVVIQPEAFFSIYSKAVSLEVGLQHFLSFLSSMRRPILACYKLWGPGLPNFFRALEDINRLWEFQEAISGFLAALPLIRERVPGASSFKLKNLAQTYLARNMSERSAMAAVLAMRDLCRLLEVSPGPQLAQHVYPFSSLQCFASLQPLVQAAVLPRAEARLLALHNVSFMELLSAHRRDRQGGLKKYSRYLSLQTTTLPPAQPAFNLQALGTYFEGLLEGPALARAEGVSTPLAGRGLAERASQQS
# NB-4 [5] = assay: Induction of apoptosis in human NB4 cells assessed as necrotic cells at 9 uM preincubated for 1 hrs followed by replacement with fresh culture medium and measured after 24 hrs by Annexin V-FITC/7AAD staining based flow cytometry assay (reference value: 0.10%); assay type: functional
# [6] = target: T1, PML-RARalpha (Homo sapiens); assay: Induction of PML/RARalpha degradation in human NB4 cells assessed as residual protein level at 3 uM incubated for 1 hrs followed by replacement with fresh culture medium and measured after 16 hrs by Western blot analysis (reference value: 1); assay type: cell-based
# NB-4 [7] = assay: Induction of apoptosis in human NB4 cells assessed as necrotic cells at 3 uM preincubated for 1 hrs followed by replacement with fresh culture medium and measured after 24 hrs by Annexin V-FITC/7AAD staining based flow cytometry assay (reference value: 0.10%); assay type: functional
# [8] = Half life in iv dosed human; assay type: ADME, organism-based; settings: in vivo
# NB-4 [9] = assay: Induction of granulocytic differentiation in human NB4 cells assessed as increase in CD11b expression at 3 uM incubated for 1 hrs followed by replacement with fresh culture medium for 48 hrs by flow cytometry analysis (reference value: 1.44%); assay type: functional
# NB-4 [10] = assay: Induction of apoptosis in human NB4 cells assessed as late apoptotic cells at 9 uM preincubated for 1 hrs followed by replacement with fresh culture medium and measured after 24 hrs by Annexin V-FITC/7AAD staining based flow cytometry assay (reference value: 3.92%); assay type: functional
# NB-4 [11] = assay: Induction of apoptosis in human NB4 cells assessed as viable cells at 3 uM preincubated for 1 hrs followed by replacement with fresh culture medium and measured after 24 hrs by Annexin V-FITC/7AAD staining based flow cytometry assay (reference value: 94%); assay type: functional; settings: read-out: Activity
# [12] = target: T1, PML-RARalpha (Homo sapiens); assay: Induction of PML/RARalpha degradation in human NB4 cells assessed as residual protein level at 0.3 uM incubated for 1 hrs followed by replacement with fresh culture medium and measured after 16 hrs by Western blot analysis (reference value: 1); assay type: cell-based
# NB-4 [13] = assay: Induction of apoptosis in human NB4 cells assessed as late apoptotic cells at 27 uM preincubated for 1 hrs followed by replacement with fresh culture medium and measured after 24 hrs by Annexin V-FITC/7AAD staining based flow cytometry assay (reference value: 3.92%); assay type: functional
# [14] = target: T1, PML-RARalpha (Homo sapiens); assay: Induction of PML/RARalpha degradation in human NB4 cells assessed as residual protein level at 1 uM incubated for 1 hrs followed by replacement with fresh culture medium and measured after 16 hrs by Western blot analysis (reference value: 1); assay type: cell-based
# NB-4 [15] = assay: Induction of apoptosis in human NB4 cells assessed as late apoptotic cells at 3 uM preincubated for 1 hrs followed by replacement with fresh culture medium and measured after 24 hrs by Annexin V-FITC/7AAD staining based flow cytometry assay (reference value: 3.92%); assay type: functional
# U-937 [16] = assay: Cytotoxicity against p53 null human U-937 cells harboring empty vector incubated for 48 hrs by CCK-8 assay; assay type: functional, cell-based; settings: U-937, 48 h
# [17] = target: T1, PML-RARalpha (Homo sapiens); assay: Induction of PML/RARalpha degradation in human NB4 cells assessed as residual protein level at 0.1 uM incubated for 1 hrs followed by replacement with fresh culture medium and measured after 16 hrs by Western blot analysis (reference value: 1); assay type: cell-based
# NB-4 [18] = assay: Induction of apoptosis in human NB4 cells assessed as early apoptotic cells at 27 uM preincubated for 1 hrs followed by replacement with fresh culture medium and measured after 24 hrs by Annexin V-FITC/7AAD staining based flow cytometry assay (reference value: 1.93%); assay type: functional
# [19] = tested on: Cellular tumor antigen p53 (Homo sapiens), P04637 [V272M]; assay: Rescue of p53-V272M mutant transcriptional activity on PUMA promoter in human NCI-H1299 cells assessed as fold change in transcriptional activity at 10 uM pretreated for 10 mins to1 hr followed by replacement with fresh culture media and measured after 24 hrs by firefly/renilla based luciferase reporter assay; assay type: cell-based; settings: filed as activator, time 10-60 min
# [20] = Half life in iv dosed mouse; assay type: ADME, organism-based; settings: in vivo
# [21] = Half life in iv dosed rat; assay type: ADME, organism-based; settings: in vivo
# [22] = Half life in po dosed human; assay type: ADME, organism-based; settings: in vivo
# NB-4 [23] = assay: Induction of granulocytic differentiation in human NB4 cells assessed as CD11b positive cells at 9 uM incubated for 1 hrs followed by replacement with fresh culture medium for 48 hrs by flow cytometry analysis relative to control; assay type: functional
# NB-4 [24] = assay: Induction of apoptosis in human NB4 cells assessed as early apoptotic cells at 9 uM preincubated for 1 hrs followed by replacement with fresh culture medium and measured after 24 hrs by Annexin V-FITC/7AAD staining based flow cytometry assay (reference value: 1.93%); assay type: functional
# NB-4 [25] = assay: Induction of apoptosis in human NB4 cells assessed as viable cells at 9 uM preincubated for 1 hrs followed by replacement with fresh culture medium and measured after 24 hrs by Annexin V-FITC/7AAD staining based flow cytometry assay (reference value: 94%); assay type: functional; settings: read-out: Activity
# NB-4 [26] = assay: Induction of granulocytic differentiation in human NB4 cells assessed as CD11b positive cells at 3 uM incubated for 1 hrs followed by replacement with fresh culture medium for 48 hrs by flow cytometry analysis relative to control; assay type: functional
# U-937 [27] = assay: Cytotoxicity against p53 null human U-937 cells harboring p53 V272M mutant incubated for 48 hrs by CCK-8 assay; assay type: functional, cell-based; settings: U-937, 48 h
# NB-4 [28] = assay: Induction of apoptosis in human NB4 cells assessed as necrotic cells at 27 uM preincubated for 1 hrs followed by replacement with fresh culture medium and measured after 24 hrs by Annexin V-FITC/7AAD staining based flow cytometry assay (reference value: 0.10%); assay type: functional
# NB-4 [29] = assay: Induction of apoptosis in human NB4 cells assessed as viable cells at 27 uM preincubated for 1 hrs followed by replacement with fresh culture medium and measured after 24 hrs by Annexin V-FITC/7AAD staining based flow cytometry assay (reference value: 94%); assay type: functional; settings: read-out: Activity
# NB-4 [30] = assay: Induction of apoptosis in human NB4 cells assessed as early apoptotic cells at 3 uM preincubated for 1 hrs followed by replacement with fresh culture medium and measured after 24 hrs by Annexin V-FITC/7AAD staining based flow cytometry assay (reference value: 1.93%); assay type: functional
# NB-4 [31] = assay: Induction of granulocytic differentiation in human NB4 cells assessed as increase in CD11b expression at 9 uM incubated for 1 hrs followed by replacement with fresh culture medium for 48 hrs by flow cytometry analysis (reference value: 1.44%); assay type: functional
# [32] = target: T1, PML-RARalpha (Homo sapiens); assay: Induction of PML/RARalpha degradation in human NB4 cells assessed as residual protein level at 9 uM incubated for 1 hrs followed by replacement with fresh culture medium and measured after 16 hrs by Western blot analysis (reference value: 1); assay type: cell-based
# [33] = target: Replicase polyprotein 1ab (Severe acute respiratory syndrome coronavirus 2) (UniProt P0DTD1); assay: Binding affinity to SARS-CoV-2 MPro with exposed Cys145 assessed as increase in melting temperature at 1:15 ratio in HEPES at pH 7.5 by DSF analysis
# [34] = Plasma stability in dog assessed as half life at […] measured upto 120 mins by LC-MS analysis; assay type: ADME, cell-free, Canis lupus familiaris
# [35] = tested on: Cellular tumor antigen p53 (Homo sapiens), P04637 [V272M]; assay: Thermostabilization of recombinant p53 V272M mutant (unknown origin) […] assessed as increase in melting temperature at 1:15 ratio in HEPES at pH 7.5 by DSF analysis
# [36] = target: T1, PML-RARalpha (Homo sapiens); assay: Induction of Flag-tagged PML/RARalpha (unknown origin) degradation overexpressed in HEK293T cells at 4.2 to 21 uM incubated for 16 hrs by Western blot analysis; assay type: cell-based; settings: dose 4.2-21 µM
# [37] = tested on: GTPase KRas (Homo sapiens), P01116 [G12C]; assay: Binding affinity to KRAS-G12C mutant (unknown origin) with exposed Cys12 assessed as increase in melting temperature at 1:15 ratio in HEPES at pH 7.5 by DSF analysis
# GTPase KRas (Homo sapiens), P01116 [G12C], sequence (P01116 whole entry G12C): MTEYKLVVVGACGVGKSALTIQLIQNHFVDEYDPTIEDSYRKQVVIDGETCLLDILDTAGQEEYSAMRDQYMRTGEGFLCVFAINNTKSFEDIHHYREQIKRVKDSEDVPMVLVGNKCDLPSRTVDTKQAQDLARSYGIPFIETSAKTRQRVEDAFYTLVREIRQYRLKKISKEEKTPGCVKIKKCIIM
# [38] = Plasma stability in mouse assessed as half life at […] measured upto 120 mins by LC-MS analysis; assay type: ADME, cell-free
# [39] = Plasma stability in human assessed as half life at […] measured upto 120 mins by LC-MS analysis; assay type: ADME, cell-free
# [40] = Plasma stability in monkey assessed as half life at […] measured upto 120 mins by LC-MS analysis; assay type: ADME, cell-free, Macaca mulatta; settings: rhesus monkey
# [41] = target: T1, PML-RARalpha (Homo sapiens); assay: Induction of Flag-tagged PML/RARalpha (unknown origin) degradation overexpressed in HEK293T cells at 13 to 65 uM incubated for 16 hrs by Western blot analysis; assay type: cell-based; settings: dose 13-65 µM
# [42] = target: T1, PML-RARalpha (Homo sapiens); assay: Induction of Flag-tagged PML/RARalpha (unknown origin) degradation overexpressed in HEK293T cells at 0.3 to 1.5 uM incubated for 16 hrs by Western blot analysis; assay type: cell-based; settings: dose 0.3-1.5 µM
smiles,measurement,setting,value
S=[As](=S)S[As](=S)=S,Activity,[1],Active
same,Activity,[2],Active
same,IC50,NB-4 [3]; nb-4,1.2 µM
same,Activity,[4],Active
O=S(=O)(O)c1cc(O)c2c(O)c(/N=N/c3ccccc3[As](=O)(O)O)c(S(=O)(=O)O)cc2c1,IC50,"NB-4 [3]; Homo sapiens, NB-4, 48 h",> 50 µM
O=[As][As+](=O)[O-] (stereo not given) [ARSENIC TRIOXIDE],Activity,NB-4 [5],0.17%
same,Activity,[6],0.49
same,Activity,NB-4 [7],0.23%
same,half-life,[8],60 min
same,Activity,NB-4 [9],1.65%
same,Activity,NB-4 [10],3.42%
same,viability at 3 µM,NB-4 [11],93.8%
same,Activity,[12],0.6
same,Activity,NB-4 [13],3.59%
same,Activity,[14],0.57
same,Activity,NB-4 [15],3.48%
same,IC50,U-937 [16],> 2 µM
same,Activity,[17],0.81
same,Activity,NB-4 [18],2.88%
same,IC50,"NB-4 [3]; Homo sapiens, NB-4, 48 h",0.94 µM
same,fold change (FC),[19],2.2
same,half-life,[20],~258 min
same,half-life,[21],~222 min
same,half-life,[22],360 min
same,Activity,NB-4 [23],2%
same,Activity,NB-4 [24],2.83%
same,viability at 9 µM,NB-4 [25],93.6%
same,Activity,NB-4 [26],1.7%
same,IC50,U-937 [27],1.07 µM
same,Activity,NB-4 [28],0.21%
same,viability at 27 µM,NB-4 [29],93.3%
same,Activity,NB-4 [30],2.54%
same,Activity,NB-4 [31],1.93%
same,Activity,[32],0.41
COC(=O)C[C@H](NC(=O)[C@H](C)NC(=O)[C@@H](NC(=O)OCc1ccccc1)C(C)C)C(=O)CF (Cbz-Val-Ala-Asp(OMe)-CH2F),Activity,[33],Active
CC(=O)Oc1ccc(C(c2ccc(OC(C)=O)cc2)c2ccccn2)cc1 [BISACODYL],half-life,[34],2.06 min
S1[As]2S[As]3S[As]1S[As](S2)S3,Activity,[35],inactive
same,IC50,NB-4 [3]; nb-4,1.99 µM
same,Activity,[36],Active
C=CC(=O)N1CCN(c2ncnc3c(F)c(-c4c(O)cccc4F)c(Cl)cc23)CC1,Activity,[37],Active
S=[As][As]=S (stereo not given),Activity,[35],inactive
S1[As]2S[As]3S[As]2S[As]13,Activity,[35],inactive
CCN(CC)CCOC(=O)c1ccc(N)cc1 [PROCAINE],half-life,[38],9.83 min
same,half-life,[39],1.4 min
same,half-life,[40],4.5 min
Nc1ccc([As](=O)(O)O)cc1 [ARSANILIC ACID],IC50,"NB-4 [3]; Homo sapiens, NB-4, 48 h",> 50 µM
O=[As]12O[As]3(=O)O[As](=O)(O1)O[As](=O)(O2)O3,IC50,NB-4 [3]; nb-4,5.56 µM
same,Activity,[41],Active
O=[As]O [SODIUM ARSENITE],Activity,[42],Active
same,IC50,"NB-4 [3]; Homo sapiens, NB-4, 48 h",0.11 µM
